# Patent US20110191867A1
# System: serum antibodies of test subjects
substance,measurement,value
Biotin-aminocaproyl-CRSKVNGQCG-NH4 [Peptide 2C],serum reactions,Strongest reactivities
